Read-outs that look alike come from different tables or passages of the source.
How the values were obtained:
[1] = target: T1, rat GnRH receptor (Rattus norvegicus, UniProt P30969); experiment: Radioligand binding, 125I-GnRH-A, rat pituitary membranes; parameters: membranes were prepared from rat pituitary; from tissue; host or cells: rat pituitary
T1 sequence (P30969 1-327): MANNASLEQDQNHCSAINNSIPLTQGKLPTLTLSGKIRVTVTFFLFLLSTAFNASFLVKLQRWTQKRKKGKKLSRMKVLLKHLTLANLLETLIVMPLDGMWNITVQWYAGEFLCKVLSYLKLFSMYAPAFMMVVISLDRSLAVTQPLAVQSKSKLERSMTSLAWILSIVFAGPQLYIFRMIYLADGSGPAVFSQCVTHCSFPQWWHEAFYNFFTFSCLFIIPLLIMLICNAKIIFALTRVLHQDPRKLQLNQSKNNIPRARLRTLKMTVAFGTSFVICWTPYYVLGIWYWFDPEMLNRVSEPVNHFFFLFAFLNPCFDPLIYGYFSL
Summary of the method: (§1)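 Bound label captured on 0.1% polyethyleneimine-treated GF/C filters, washed three times with PBS, counted. IC50 derived; identical set-up for every species.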

[2] = target: T2, human GnRH receptor (Homo sapiens, UniProt P30968); experiment: Radioligand binding, 125I-GnRH-A displacement, membranes of HEK 293 cells with human GnRH receptor
T2 construct: expressed in transfected cells; host or cells: HEK 293 (hGnRH-R/293, from Dr. Stuart Sealfon)
T2 sequence (P30968 1-328): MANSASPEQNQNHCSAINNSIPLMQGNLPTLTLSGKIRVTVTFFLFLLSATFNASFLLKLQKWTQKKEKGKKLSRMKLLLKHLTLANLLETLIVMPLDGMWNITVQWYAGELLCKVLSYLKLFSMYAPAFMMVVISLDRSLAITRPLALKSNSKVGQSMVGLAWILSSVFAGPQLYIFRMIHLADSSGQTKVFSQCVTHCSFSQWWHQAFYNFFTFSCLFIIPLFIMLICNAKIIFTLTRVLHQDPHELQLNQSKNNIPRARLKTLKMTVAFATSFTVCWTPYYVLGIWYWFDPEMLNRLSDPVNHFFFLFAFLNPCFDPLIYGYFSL
Summary of the method: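 After filtration and PBS washes, bound radioactivity was counted by scintillation and IC50 derived. Identical conditions applied for non-human receptors.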

[3] = target: T3, bovine GnRH receptor (Bos taurus, UniProt P32236); experiment: Radioligand binding, 125I-GnRH-A, bovine pituitary membranes
T3 construct: membranes were prepared from bovine pituitary; from tissue; host or cells: bovine pituitary
T3 sequence (P32236 1-328): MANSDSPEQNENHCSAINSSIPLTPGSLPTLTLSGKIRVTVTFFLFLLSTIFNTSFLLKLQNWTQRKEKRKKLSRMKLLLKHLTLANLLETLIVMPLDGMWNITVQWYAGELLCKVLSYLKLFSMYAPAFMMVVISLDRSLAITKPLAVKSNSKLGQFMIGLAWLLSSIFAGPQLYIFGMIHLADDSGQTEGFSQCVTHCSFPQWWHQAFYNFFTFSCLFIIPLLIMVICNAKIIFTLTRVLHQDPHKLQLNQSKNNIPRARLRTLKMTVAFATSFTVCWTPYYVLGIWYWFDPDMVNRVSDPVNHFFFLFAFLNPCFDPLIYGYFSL
Method: All compounds were diluted in 1% DMSO (final assay concentration) in binding assay buffer. […] Reactions were terminated by rapid filtration onto 96-well Packard GF/C filters soaked in 0.1% polyethyleneimine. Filters were washed three times with PBS buffer, dried and counted on a Packard Topcount by liquid scintillation counting.
Assay conditions were identical for assessing compound activities at other species. […] IC50 values for control peptides and test compounds were calculated utilizing GraphPad Prism™ software.
The reaction mixture was vortexed and incubated for 1 min at room temperature. After one min, the mixture was vortexed and allowed to incubate for an additional minute. 2 ml of 0.5 M acetic acid/1% BSA was added to the reaction tube and the mixture was added to a C18 Sep-Pak cartridge. The cartridge was washed with subsequent washes of 5 ml H2O and 5 ml 0.5M acetic acid and then eluted with 5×1 ml of 60% CH3CN/40% 0.5M acetic acid. The eluate was diluted with 3× volume of HPLC buffer A (0.1% TFA in H2O) and loaded onto a C18 column. […] The radioactive fractions (750 ed/fraction) are collected into clean polypropylene tubes containing 100 μl of 10% BSA. Fractions were assessed for biological activity by radioligand binding.

[4] = target: T4, mouse GnRH receptor (Mus musculus, UniProt Q01776); experiment: Radioligand binding, 125I-GnRH-A, 293 cells expressing mouse GnRH receptors
T4 construct: expressed in transfected cells; host or cells: 293 cells
T4 sequence (Q01776 1-327): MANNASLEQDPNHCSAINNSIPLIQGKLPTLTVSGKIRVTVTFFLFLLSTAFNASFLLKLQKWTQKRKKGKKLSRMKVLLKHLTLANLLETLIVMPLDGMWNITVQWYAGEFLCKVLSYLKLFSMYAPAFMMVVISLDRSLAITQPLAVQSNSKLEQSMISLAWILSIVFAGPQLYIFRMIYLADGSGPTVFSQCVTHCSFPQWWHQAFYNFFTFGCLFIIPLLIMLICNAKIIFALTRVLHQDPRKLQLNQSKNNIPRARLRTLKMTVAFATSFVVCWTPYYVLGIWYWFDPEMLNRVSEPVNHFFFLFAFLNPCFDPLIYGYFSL
Summary of the method: as §1

[5] = Pharmacokinetic studies / bioavailability in rats; format: in vivo, rat; conditions: male, rat, plasma, 10 mg/kg, rat male; for half-life: iv
[6] = Metabolism rate, pmol/min/mg at 1 μM, human; format: in vitro ADME; conditions: 1 μM compound
[7] = Metabolism rate, pmol/min/mg at 1 μM, rat male; format: in vitro ADME; conditions: 1 μM compound
[8] = means ± SE of at least three experiments performed in duplicate, read-out: Human IC50
[9] = means ± SE of at least three experiments performed in duplicate, read-out: Rat IC50
[10] = means ± SE of at least three experiments performed in duplicate, read-out: Bovine IC50
[11] = means ± SE of at least three experiments performed in duplicate, read-out: Mouse IC50
[12] = po, p.o. 10 mg/kg, vehicle per footnote

| SMILES | IC50 ([1]; read-out: rGnRH IC50) [nM] | IC50 [2, 8] [nM] | IC50 ([2]; read-out: hGnRH IC50) [nM] | IC50 ([3]; read-out: bGnRH IC50) [nM] | IC50 ([4]; read-out: mGnRH IC50) [nM] | half-life [5] [min] | IC50 ([2]; second value marked * (mostly in parentheses), asterisk not explained, read-out: hGnRH IC50, value marked *) [nM] | IC50 [1, 9] [nM] | IC50 [3, 10] [nM] | IC50 [4, 11] [nM] | Cmax [5, 12] [nM] | Tmax [5, 12] [min] | Human pmol/min/mg 1 μM [6] [pmol/min/mg] | Rat male pmol/min/mg 1 μM [7] [pmol/min/mg] |
| --- | --- | --- | --- | --- | --- | --- | --- | --- | --- | --- | --- | --- | --- | --- |
| Cc1cc2c(cc1Cc1ccc(C(=O)NCc3cccnc3)o1)C(C)(C)CCC2(C)C [Compound 43] | 330 | – | 320 | 4000 | 630 | – | 130 | – | – | – | – | – | – | – |
| Cc1cc2c(cc1Cc1ccc(C(=O)NCC3CCCC(CNC(=N)N)C3)o1)C(C)(C)CCC2(C)C (centres unmarked) [Compound 22] | 310 | – | 540 | 1710 | 1100 | – | – | – | – | – | – | – | – | – |
| Cc1cc2c(cc1Cc1ccc(C(=O)NCC3CCC(C#N)CC3)o1)C(C)(C)CCC2(C)C (centres unmarked) [Compound 16] | 560 | 30 ± 6 | 30 | – | 1290 | 40 | – | 560 ± 50 | 4380 ± 510 | 1290 ± 210 | – | – | – | – |
| Cc1cc2c(cc1Cc1ccc(C(=O)NCc3ccc(CNC(=N)N)cc3)o1)C(C)(C)CCC2(C)C [Compound 25] | 260 | – | 410 | 940 | 950 | – | – | – | – | – | – | – | – | – |
| Cc1cccc(CNC(=O)c2ccc(Cc3cc4c(cc3C)C(C)(C)CCC4(C)C)o2)c1 [Compound 41] | 210 | – | 140 | 1400 | 490 | – | – | – | – | – | – | – | 185 | 1606 |

Now those with a lower IC50 ([1]; read-out: rGnRH IC50), led by results:

| IC50 ([1]; read-out: rGnRH IC50) [nM] | IC50 [2, 8] [nM] | IC50 ([2]; read-out: hGnRH IC50) [nM] | IC50 ([3]; read-out: bGnRH IC50) [nM] | IC50 ([4]; read-out: mGnRH IC50) [nM] | half-life [5] [min] | IC50 ([2]; second value marked * (mostly in parentheses), asterisk not explained, read-out: hGnRH IC50, value marked *) [nM] | IC50 [1, 9] [nM] | IC50 [3, 10] [nM] | IC50 [4, 11] [nM] | Cmax [5, 12] [nM] | Tmax [5, 12] [min] | Human pmol/min/mg 1 μM [6] [pmol/min/mg] | Rat male pmol/min/mg 1 μM [7] [pmol/min/mg] | SMILES |
| --- | --- | --- | --- | --- | --- | --- | --- | --- | --- | --- | --- | --- | --- | --- |
| 60 | 50 ± 3 | 50 | 605 | 160 | 43 | – | – | – | – | – | – | – | – | CC(=O)c1cccc(NC(=O)c2ccc(Cc3cc4c(cc3C)C(C)(C)CCC4(C)C)o2)c1 [Compound 19] |
| 30 | 80 ± 20 | 80 | – | 80 | 132 | – | 30 ± 4 | 670 ± 120 | 80 ± 20 | – | – | – | – | Cc1cc2c(cc1Cc1ccc(C(=O)NCc3cccc(C)c3C)o1)C(C)(C)CCC2(C)C [Compound 17] |
| 40 | 55 ± 11 | 55 | – | 115 | 55 | – | 40 ± 3 | 460 ± 90 | 115 ± 25 | – | – | – | – | Cc1ccc(CNC(=O)c2ccc(Cc3cc4c(cc3C)C(C)(C)CCC4(C)C)o2)cc1C [Compound 18] |
| 60 | 80 ± 4 | 80 | – | 290 | 84 | – | 60 ± 15 | 1050 ± 30 | 290 ± 70 | 1600 | 60 | – | – | Cc1ccc(CNC(=O)c2ccc(Cc3cc4c(cc3C)C(C)(C)CCC4(C)C)o2)cc1 [Compound 14] |
| 120 | – | 150 | 1930 | 400 | – | – | – | – | – | – | – | 392 | 1877 | Cc1cc2c(cc1Cc1ccc(C(=O)NCc3ccccc3Cl)o1)C(C)(C)CCC2(C)C [Compound 51] |

— patent US7101878B1 (Agouron Pharmaceuticals, Inc., priority 1998, dated 2006)
